Results as given in patent US6770290B1, “Amphotericin B liposome preparation” (priority 1987, dated 2004).

Test system: Candida albicans
Test: Therapeutic efficacy in C. albicans infected mice
Assay type: in vivo
Settings: single dose 3 days post infection; for 29 SURVIVORS (%) / surviving mice at day 29 post infection: n = 8 per group
Procedure: 360.1 mg of the spray dried powder were hydrated at 65 degrees Centigrade for 40 minutes with 9% lactose containing 10 mM succinate buffer, pH 5.62. Liposomes were prepared by sonication for four minutes with a ½ probe at 65° C. under a nitrogen atmosphere. Three successive batches of liposomes were prepared in a similar fashion. After sterile filtration, the Amphotericin B concentration was determined to be 1.73 mg/ml.
For therapeutic efficacy studies, groups of 8 mice were given intravenous inoculations of 3.5×10^5 Candida albicans yeast cells. Three days post-infection, animals were treated with a single dose of either free Amphotericin B or liposomal Amphotericin B. A severe systemic infection existed in animals which were not treated until three days post infection. Each successive group was treated with an increasing dose of medicament in order to establish a dose response relationship. Twenty-nine days after infection the study was evaluated for surviving animals. All untreated control animals had died by 8 days post-infection, with a median survival of 7 days. […] In contrast, all animals treated with 10 or 15 mg/kg of liposomal Amphotericin B were still alive […] post infection.

Compound: C[C@@H]1[C@H](O)[C@@H](C)/C=C/C=C/C=C/C=C/C=C/C=C/C=C/[C@H](O[C@@H]2O[C@H](C)[C@@H](O)[C@H](N)[C@@H]2O)C[C@@H]2O[C@](O)(C[C@@H](O)C[C@@H](O)[C@H](O)CC[C@@H](O)C[C@@H](O)CC(=O)O[C@H]1C)C[C@H](O)[C@H]2C(=O)O [FREE AM B, Amphotericin B]
- 29 SURVIVORS (%) (AMB dose 0.5 mg/kg): (0%)
- surviving mice at day 29 post infection (AMB dose 0.5 mg/kg): 0
- 29 SURVIVORS (%) (AMB dose 1.0 mg/kg): (0%)
- surviving mice at day 29 post infection (AMB dose 1.0 mg/kg): 0
- 29 SURVIVORS (%) (AMB dose 1.5 mg/kg): (0%)
- surviving mice at day 29 post infection (AMB dose 1.5 mg/kg): 0
- survivors at 29 days post infection (any dose level): no dose level of free Amphotericin B which produced any survivors
